Measured values: patent US9296687B2, “Modulators of HSP70/DnaK function and methods of use thereof” (The Trustees of the University of Pennsylvania, priority 2008, dated 2016)

Tests used:
EGFR, HER2/ErbB2, AKT = experiment: Western blot of HSP70/HSP90 client proteins in detergent-soluble and detergent-insoluble fractions; assay type: cell-based, human
Protocol: FIG. 17. PES impairs the proteasome system. (A) Cell-based 20S proteasome activity assay of H1299 or A875 human tumor cells treated with DMSO, 20 μM PES, 100 nM Velcade (proteasome inhibitor), 1 μM 17-AAG (HSP90 inhibitor), 5 μM CQ (lysosome inhibitor), or 20S proteasome inhibitor epigallocatechin gallate (EGCG). Each graphical representation indicates the mean±SD of at least three independent cultures relative to control (DMSO-treated) cells. (B) Cell extracts from SKBR3 human breast carcinoma cells, treated either with 20 μM PES or 1 μM 17-AAG for 24 h, were immunoprecipitated (IP) using anti-HSP70 or anti-HSP90 antibody. […] MTT assays of MCF7 human breast carcinoma cells pretreated with DMSO, or 5 μM PES for 1 h, followed by the addition of indicated amount of 17-AAG for 47 h. The results represent the mean±SD of at least three independent analysis of cultures relative to control (DMSO-treated) cells. (D and E) H1299 cells (D) or SKBR3 cells (E) were treated with DMSO, 20 μM PES, 17-AAG, or 17-AAG plus bortezomib (Velcade) as indicated; harvested in 1% NP-40 containing lysis buffer; fractionated into detergent-soluble and detergent-insoluble preparations; and assayed by western blot.
FIG. 18. Accumulation of HSP90 client proteins in the protein detergent-insoluble fraction following PES. (A) SKOV3 cells were treated with DMSO, 10 μM PES, or 20 μM PES for 24 h. Note the marked accumulation of EGFR, HER2/ErbB2, and AKT in the detergent-insoluble fraction following 20 μM PES treatment. (B and C) SKOV3 (B) or SKBR3 (C) cells were treated with DMSO, 20 μM PES, or 1 μM 17-AAG, as indicated, for 24 h. Cells were harvested in 1% NP-40 containing lysis buffer, fractionated into detergent-soluble and detergent-insoluble preparations, and assayed by western blot for the proteins indicated.
The HSP70 and HSC70 proteins bind to exposed hydrophobic regions of nascent-, translocating-, misfolded- or partially unfolded-proteins. These ATP-dependent molecular chaperones act in multi-protein complexes in conjunction with one or more regulatory co-chaperones to carry out multiple cellular functions. […] This is illustrated for H1299 cells treated with 10 or 20 μM PES for 24 h. […] This correlates with a reduced abundance of complexes containing HSP70, or HSC70, together with client proteins or co-chaperones (FIGS. 19A and 19B). […] However, since HSP70/HSC70 act as critical co-chaperones for HSP90, for example in client protein recruitment, PES-mediated alteration in the function of the 70-kDa molecular chaperones could be reflected in an altered behavior or expression of many client proteins. To test this idea, we examined the expression of a few well-established HSP90 client proteins, including the transmembrane tyrosine kinase receptors EGFR and HER2/ERBB2, and the downstream signaling factor AKT. These proteins are overexpressed, or aberrantly expressed, in a variety of human tumors, and have been implicated in cancer etiology and pathology. As a control for these studies, we compared the effects of PES to that of the well-established HSP90 inhibitor, 17-allylamino-17-demethoxygeldanamycin (17-AAG). 17-AAG interacts with the N-terminal region of HSP90 and inhibits its ATPase activity; this disrupts interactions of HSP90 with client proteins and leads to client-protein degradation via the ubiquitin-proteasome pathway (Whitesell, et al. 2005; Neckers, et al. 2007). To examine the expression of some HSP70/HSP90 clients, we used western blot analysis of detergent-soluble (clarified) whole cell extracts.

HSP70 = HSP70 (Homo sapiens, UniProt P0DMV8); experiment: Capture of HA-tagged HSP70 constructs from transfected H1299 cells with biotinylated compound; assay type: binding; design: expressed in transfected cells; host or cells: H1299; conditions: biotinylated compound, 6 hours
Protocol: FIG. 1. PES Binds to HSP70. (A) Whole cell extracts (WCE) prepared from A875 and BCL-xL over-expressing U2OS human osteosarcoma cells (BX-U2OS) cells, treated with Biotin or Biotin-PES (B-PES), were captured using NeutrAvidin agarose resins. HSP70-family proteins were identified as the major product in the excised band of ˜70 kDa shown in both Coomassie gels. (B and C) WCE were prepared from the cell lines indicated following 24 h treatment with 20 μM Biotin or B-PES and examined for the expression of proteins indicated (left panel of B and C) by western blot analysis; note that different exposure times were used to visualize these proteins. […] (D) In vitro evidence for an interaction between B-PES and HSP70. Full-length human HSP70 and human HSP90 proteins were in vitro translated in the presence of ^35S-methionine, mixed with B-PES coupled to NeutrAvidin resins, and eluted using 100 mM DTT. The resulting DTT eluates were separated by polyacrylamide gel electrophoresis (SDS-PAGE) and visualized by autoradiography. (E) B-PES interacts with the C-terminal region of HSP70. H1299 cells were transfected with the indicated hemagglutinin (HA)-tagged constructs and exposed to B-PES. B-PES containing complexes were captured by NeutrAvidin Resins, eluted following 100 mM DTT treatment, and immunoblotted with anti-HA antibody following SDS-PAGE. (F) Non-transformed human IMR90 fibroblasts or H1299 lung carcinoma cells were treated with the indicated concentrations of PES for 24 h and cell viability was determined by MTT assays. (G) WCE were prepared from the cell lines indicated following 5 hr treatment with 20 μM PES or B-PES and examined for the expression of proteins indicated (left panel) by western blot analysis; note that different exposure times were used to visualize these proteins. B-PES-containing complexes were captured by NeutrAvidin resins, eluted following 50 mM DTT treatment, and immunoblotted using the indicated antibodies.
The free amide group of PES-Cl was biotinylated and added to HA-tagged HSP70-transfected H1299 cells. The treatment of the cells occurred for 6 hours. The complexes were pulled down with NeutrAvidin beads, eluted with 100 mM DTT treatments, separated with SDS-PAGE and detected with anti-HA antibody (Millipore) by Western blot.
Docking studies were performed using the C-terminal HSP70 crystal structure (FIG. 32) to elucidate the PES binding site in silico (FIG. 33). Blind docking methods were used in the program AutoDock to locate potential PES binding sites. These methods use a course grid docking approach, encompassing the entire protein, to identify favorable binding sites using a known binding ligand, and are examined by hand to support the AutoDock data. […]

Chain of HSP70 (P0DMV8 2-641): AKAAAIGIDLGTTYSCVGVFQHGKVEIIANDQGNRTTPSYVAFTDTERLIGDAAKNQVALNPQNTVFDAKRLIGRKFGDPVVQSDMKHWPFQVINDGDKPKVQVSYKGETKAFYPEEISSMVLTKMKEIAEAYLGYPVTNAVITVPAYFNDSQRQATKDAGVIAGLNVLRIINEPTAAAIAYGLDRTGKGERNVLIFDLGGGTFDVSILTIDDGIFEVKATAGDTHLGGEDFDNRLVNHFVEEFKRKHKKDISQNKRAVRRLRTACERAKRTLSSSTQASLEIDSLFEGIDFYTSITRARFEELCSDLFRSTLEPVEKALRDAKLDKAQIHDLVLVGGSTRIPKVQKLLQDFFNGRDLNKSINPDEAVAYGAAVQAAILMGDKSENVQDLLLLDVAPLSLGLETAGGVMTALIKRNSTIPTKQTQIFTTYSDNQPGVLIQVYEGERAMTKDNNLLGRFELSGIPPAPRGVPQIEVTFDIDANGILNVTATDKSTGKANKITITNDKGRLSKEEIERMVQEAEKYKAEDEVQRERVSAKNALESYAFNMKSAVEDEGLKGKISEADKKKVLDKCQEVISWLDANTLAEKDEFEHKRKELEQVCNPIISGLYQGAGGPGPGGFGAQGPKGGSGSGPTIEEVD

## NS(=O)(=O)C#Cc1ccccc1 [PES, 2-Phenylethynesulfonamide]
EGFR, HER2/ErbB2, AKT; 20 μM, 24 h
  EGFR, HER2/ErbB2 and AKT in the detergent-insoluble fraction: increased abundance of EGFR, HER2/ErbB2, and AKT in the detergent-insoluble fraction
EGFR, HER2/ErbB2, AKT; H1299 cells, 20 μM, 24 h
  expression of integrin β1 and CHIP: lower expression levels
EGFR, HER2/ErbB2, AKT; SKBR3 cells, detergent-soluble extracts, 24 h
  overall cellular abundance of EGFR, HER2/ErbB2 and AKT: reduction in the overall cellular abundance
EGFR, HER2/ErbB2, AKT; SKBR3 or SKOV3 cells
  other cellular proteins in the detergent-insoluble fraction: many of the proteins examined accumulate in the detergent-insoluble fraction
HSP70
  interaction with HA-tagged HSP70: interact with HSP70
